Experimental findings from patent US7282507B2, “Indole derivatives as selective androgen receptor modulators (SARMS)” (Janssen Pharmaceutica N.V., priority 2004, dated 2007) are described below.

The assay concerns the target T1, androgen receptor (AdEasy+rAR, L929 cells) (Rattus norvegicus, UniProt P15207).
T1 construct: expressed in transfected cells; host or cells: L929 cells transduced with adenovirus AdEasy+rAR
T1 sequence (P15207 1-902): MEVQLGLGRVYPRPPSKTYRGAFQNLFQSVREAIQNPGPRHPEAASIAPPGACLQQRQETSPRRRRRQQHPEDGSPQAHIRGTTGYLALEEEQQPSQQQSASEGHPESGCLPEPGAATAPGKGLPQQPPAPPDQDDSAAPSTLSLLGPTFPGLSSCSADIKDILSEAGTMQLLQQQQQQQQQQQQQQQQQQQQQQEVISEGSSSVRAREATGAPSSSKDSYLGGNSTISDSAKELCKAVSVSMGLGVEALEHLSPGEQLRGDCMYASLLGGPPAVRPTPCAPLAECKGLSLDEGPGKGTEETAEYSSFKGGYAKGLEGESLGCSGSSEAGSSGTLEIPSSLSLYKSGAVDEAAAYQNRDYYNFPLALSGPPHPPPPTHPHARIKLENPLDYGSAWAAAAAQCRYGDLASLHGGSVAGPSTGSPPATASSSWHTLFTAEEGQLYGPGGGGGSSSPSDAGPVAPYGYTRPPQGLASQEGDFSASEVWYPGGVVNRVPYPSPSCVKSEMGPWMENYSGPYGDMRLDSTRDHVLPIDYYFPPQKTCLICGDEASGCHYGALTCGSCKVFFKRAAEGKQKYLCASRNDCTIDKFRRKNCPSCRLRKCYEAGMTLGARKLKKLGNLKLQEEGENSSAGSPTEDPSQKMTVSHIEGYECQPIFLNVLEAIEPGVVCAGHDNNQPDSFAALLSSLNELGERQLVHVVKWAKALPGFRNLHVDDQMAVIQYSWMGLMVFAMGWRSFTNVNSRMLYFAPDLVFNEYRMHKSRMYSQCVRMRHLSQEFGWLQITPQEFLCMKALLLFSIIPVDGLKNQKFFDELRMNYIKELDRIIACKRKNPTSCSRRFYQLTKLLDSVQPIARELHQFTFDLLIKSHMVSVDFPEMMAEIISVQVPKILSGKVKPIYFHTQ
The experiment in a line: L929 Androgen Receptor Functional Assay, Adenovirus Transduction. The assay is classed as cell-based. An outline of the steps:
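L929 cells in phenol red-free, charcoal-stripped serum medium transduced with AdEasy+rAR (moi 1:500) and exposed 48 h at 37 °C to compound alone (agonist mode) or with R1881 (antagonist mode; 2.5 nM as the 2.5× dilution).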

The term inhibition denotes the change of the read-out against control, counted positive when it falls. Read a low inhibition as little suppression. For the setting “L929, antagonist testing with R1881, 3000 nM”, `CCSCC(C)(O)c1cc2cc([N+](=O)[O-])c(C(F)(F)F)cc2n1C` (racemic) [Compound 165] yielded an inhibition at 3 µM of 100%. Moreover, the “% Activity, L929 androgen receptor functional assay” value (agonist testing, 3000 nM) is reported as 1%.
